Data published in patent US8124744B2, “Macrolide derivatives” (Taisho Pharmaceutical Co., Ltd., priority 2006, dated 2012).
Converted amounts (≈) assume the structure as drawn.

Legend:
[1] = tested on: Staphylococcus aureus ATCC29213; experiment: Minimal inhibitory concentration (MIC); format: cell-based
Protocol: (§1) To 7- to 9-week male C57BL/6J mice (purchased from CLEA Japan, Inc. or Japan SLC, Inc.), Zymosan A (SIGMA) derived from budding yeasts which is adjusted to be 1 mg/ml in a phosphate buffer solution (PBS, 10010-49, Invitrogen) was administered intraperitoneally at 1 ml per mouse to induce peritonitis. Three days later, filter-sterilized cell recovery buffer (2 mM EDTA, 0.5% bovine serum albumin, PBS, pH 7.4) was administered intraperitoneally at 5 ml per mouse to recover peritoneal exudata cells. The cells went through a cell strainer (70 μm nylon, FALCON) and were then washed twice with a Hanks solution (Invitrogen). The cells were suspended in 10% fetal calf serum-containing Dulbecco's modified Eagle's culture medium (Invitrogen). The suspension was seeded on a plate with 48 wells, after 6 hours, the culture medium was completely exchanged. After culturing for another 18 hours, test compounds were added at 0.02 to 20 μM of the final concentration. After 1 hour from the addition of the compounds, a tumor necrosis factor (TNF) α (R & D Systems) was added at 25 ng/ml of the final concentration, and 24 hours later, the culture supernatant was collected. The amount of pro MMP-9 protein in the supernatant was quantified by an enzyme-linked immunosorbent assay (ELISA) (R & D Systems), IC50 values of the test compounds on the increased amount by TNF α stimuli, were calculated by ORIGIN analysis software (trade name: OriginLab). In addition, minimal inhibitory concentration (MIC) of each test compounds (measured bacterium: Staphylococcus aureus ATCC29213) was measured. As a comparative agent […] A (clarithromycin) was used.

pro MMP-9 protein = experiment: Inhibitory activity against proMMP-9 protein production (TNF α-stimulated mouse peritoneal exudate cells, ELISA); format: cell-based, C57BL/6J mice; settings: relative activity when the value of Comparative Agent 1 (IC50 = 10.04 ± 4.11 μM) is 10, on the increase of pro MMP-9 by TNF α 25 ng/ml, 24 hours, read-out: IC50 (μM)*
Protocol: as §1

| SMILES | MIC [1] [µg/mL] | IC50 (pro MMP-9 protein) [µM] |
| --- | --- | --- |
| CC[C@H]1OC(=O)[C@H](C)[C@@H](O[C@H]2C[C@@](C)(OC)[C@@H](O)[C@H](C)O2)[C@H](C)[C@@H](O[C@@H]2O[C@H](C)C[C@@H](N(C)Cc3ccccn3)[C@@H]2N(C)C)[C@@](C)(OC)C[C@@H](C)C(=O)[C@H](C)[C@@H](O)[C@]1(C)O [Example 192, 3′-N-demethyl-2′-deoxy-2′-dimethylamino-3′-N-(2-pyridylmethyl)-6-O-methylerythromycin A] | > 128 | 2.46 |
| CC[C@H]1OC(=O)[C@H](C)[C@@H](O[C@H]2C[C@@](C)(OC)[C@@H](OC(C)=O)[C@H](C)O2)[C@H](C)[C@@H](O[C@@H]2O[C@H](C)C[C@@H](N(C)CCCO)[C@@H]2N(C)C)[C@@](C)(OC)C[C@@H](C)C(=O)[C@H](C)[C@@H](O)[C@]1(C)O [Example 198, 4″-O-acetyl-3′-N-demethyl-2′-deoxy-2′-dimethylamino-3′-N-(3-hydroxypropyl)-6-O-methylerythromycin A] | > 128 | 2.88 |
| CC[C@H]1OC(=O)[C@H](C)[C@@H](O[C@H]2C[C@@](C)(OC)[C@@H](OC(C)=O)[C@H](C)O2)[C@H](C)[C@@H](O[C@@H]2O[C@H](C)C[C@H](N(C)C)[C@H]2OC)[C@@](C)(OC)C[C@@H](C)C(=O)[C@H](C)[C@H]2NC(=O)O[C@@]21C [Example 148, 4″-O-acetyl-11-amino-11-deoxy-6,2′-di-O-methylerythromycin A 11,12-cyclic carbamate] | > 128 | 7.68 |
| CC[C@H]1OC(=O)[C@H](C)[C@@H](O[C@H]2C[C@@](C)(OC)[C@@H](O)[C@H](C)O2)[C@H](C)[C@@H](O[C@@H]2O[C@H](C)C[C@@H](N3CCOCC3)[C@@H]2N(C)CCN(C)C)[C@@](C)(OC)C[C@@H](C)C(=O)[C@H](C)[C@@H](O)[C@]1(C)O [Example 216] | > 128 | 2.55 |
| CC[C@H]1OC(=O)[C@H](C)[C@@H](O[C@H]2C[C@@](C)(OC)[C@@H](OC(C)=O)[C@H](C)O2)[C@H](C)[C@@H](O[C@@H]2O[C@H](C)C[C@H](N(C)C)[C@H]2OCCCN2CCOCC2)[C@@](C)(OC)C[C@@H](C)C(=O)[C@H](C)[C@@H](O)[C@]1(C)O [Example 119, 4″-O-acetyl-2′-O-(3-(4-morpholino)propyl)-6-O-methylerythromycin A] | > 128 | 4.42 |
| CC[C@H]1OC(=O)[C@H](C)[C@@H](O[C@H]2C[C@@](C)(OC)[C@@H](OC(C)=O)[C@H](C)O2)[C@H](C)[C@@H](O[C@@H]2O[C@H](C)C[C@@H](N(C)Cc3ccncc3)[C@@H]2N(C)C)[C@@](C)(OC)C[C@@H](C)C(=O)[C@H](C)[C@@H](O)[C@]1(C)O [Example 187, 4″-O-acetyl-3′-N-demethyl-2′-deoxy-2′-dimethylamino-3′-N-(4-pyridylmethylamino)-6-O-methylerythromycin A] | > 128 | 1.37 |
| CC[C@H]1OC(=O)[C@H](C)[C@@H](O[C@H]2C[C@@](C)(OC)[C@@H](OC(C)=O)[C@H](C)O2)[C@H](C)[C@@H](O[C@@H]2O[C@H](C)C[C@@H](N(C)S(C)(=O)=O)[C@@H]2N(C)C)[C@@](C)(OC)C[C@@H](C)C(=O)[C@H](C)[C@@H](O)[C@]1(C)O [Example 185, 4″-O-acetyl-3′-N-demethyl-2′-deoxy-2′-dimethylamino-3′-N-methanesulfonyl-6-O-methylerythromycin A] | > 128 | 2.4 |
| CC[C@H]1OC(=O)[C@H](C)[C@@H](O[C@H]2C[C@@](C)(OC)[C@@H](O)[C@H](C)O2)[C@H](C)[C@@H](O[C@@H]2O[C@H](C)C[C@H](N(C)CCCN3CCOCC3)[C@H]2OC)[C@@](C)(OC)C[C@@H](C)C(=O)[C@H](C)[C@@H](O)[C@]1(C)O [Example 131, 3′-N-demethyl-3′-N-(3-(4-morpholino)propyl)-6,2′-di-O-methylerythromycin A] | > 128 | 3.33 |
| CC[C@H]1OC(=O)[C@H](C)[C@@H](O[C@H]2C[C@@](C)(OC)[C@@H](O)[C@H](C)O2)[C@H](C)[C@@H](O[C@@H]2O[C@H](C)C[C@@H](N3CCN(C)CC3)[C@@H]2N(C)C)[C@@](C)(OC)C[C@@H](C)C(=O)[C@H](C)[C@H]2NC(=O)O[C@@]21C [Example 89, 11-amino-3′-dedimethylamino-11,2′-dideoxy-2′-dimethylamino-3′-(4-methylpiperazin-1-yl)-6-O-methylerythromycin A 11,12-cyclic carbamate] | > 128 | 1.59 |
| CC[C@H]1OC(=O)[C@H](C)[C@@H](O[C@H]2C[C@@](C)(OC)[C@@H](O)[C@H](C)O2)[C@H](C)[C@@H](O[C@@H]2O[C@H](C)C[C@@H](N(C)CCCO)[C@@H]2N(C)C)[C@@](C)(OC)C[C@@H](C)C(=O)[C@H](C)[C@@H](O)[C@]1(C)O [Example 199, 3′-N-demethyl-2′-deoxy-2′-dimethylamino-3′-N-(3-hydroxypropyl)-6-O-methylerythromycin A] | > 128 | 3.6 |
| CC[C@H]1OC(=O)[C@H](C)[C@@H](O[C@H]2C[C@@](C)(OC)[C@@H](O)[C@H](C)O2)[C@H](C)[C@@H](O[C@@H]2O[C@H](C)C[C@@H](N3CCOCC3)[C@@H]2N(C)C)[C@@](C)(O)C[C@@H](C)CN(C)[C@H](C)[C@@H](O)[C@]1(C)O [Example 213, 3′-dedimethylamino-2′-deoxy-2′-dimethylamino-3′-(4-morpholino)-9-deoxo-9a-aza-9a-methyl-9a-homoerythromycin A] | > 128 | 0.77 |
| CC[C@H]1OC(=O)[C@H](C)[C@@H](O[C@H]2C[C@@](C)(OC)[C@@H](O)[C@H](C)O2)[C@H](C)[C@@H](O[C@@H]2O[C@H](C)C[C@@H](NC)[C@@H]2N(C)C)[C@@](C)(OC)C[C@@H](C)C(=O)[C@H](C)[C@@H](O)[C@]1(C)O [Example 175, 3′-N-demethyl-2′-deoxy-2′-dimethylamino-6-O-methylerythromycin A] | 128 (≈ 168 µM) | 1.65 |
| CC[C@H]1OC(=O)[C@H](C)[C@@H](O[C@H]2C[C@@](C)(OC)[C@@H](OC(C)=O)[C@H](C)O2)[C@H](C)[C@@H](O[C@@H]2O[C@H](C)C[C@H](N(C)CCCOC(C)=O)[C@H]2OC)[C@@](C)(OC)C[C@@H](C)C(=O)[C@H](C)[C@@H](O)[C@]1(C)O [Example 136, 4″-O-acetyl-3′-N-demethyl-3′-N-(3-acetoxypropyl)-6,2′-di-O-methylerythromycin A] | > 128 | 2.12 |
| CC[C@H]1OC(=O)[C@H](C)[C@@H](O[C@H]2C[C@@](C)(OC)[C@@H](O)[C@H](C)O2)[C@H](C)[C@@H](O[C@@H]2O[C@H](C)C[C@H](N(C)C)[C@H]2OCCCc2ccccc2)[C@@](C)(OC)C[C@@H](C)C(=O)[C@H](C)[C@@H](O)[C@]1(C)O [Example 24, 2′-O-(3-phenylpropyl)-6-O-methylerythromycin A] | > 64 | 0.38 |
| CC[C@H]1OC(=O)[C@H](C)[C@@H](O[C@H]2C[C@@](C)(OC)[C@@H](OC(C)=O)[C@H](C)O2)[C@H](C)[C@@H](O[C@@H]2O[C@H](C)C[C@@H](N(C)Cc3cccnc3)[C@@H]2N(C)C)[C@@](C)(OC)C[C@@H](C)C(=O)[C@H](C)[C@@H](O)[C@]1(C)O [Example 189, 4″-O-acetyl-3′-N-demethyl-2′-deoxy-2′-dimethylamino-3′-N-(3-pyridylmethyl)-O-methylerythromycin A] | > 128 | 3.38 |
